Reference: PubChem BioAssay AID588641 (Sanford-Burnham Center for Chemical Genomics, 2011)
The source made the active and inactive calls. How the calls were made is not given here.

Molecular target: alkaline phosphatase, placental type (human)
Assay: PLAP enzyme inhibition by analogs, SAR follow-up, selectivity assay for mouse IAP inhibitor project, biochemical, human PLAP isozyme, set 2 (AID 588641)
Details: purified human placental alkaline phosphatase, enzyme activity

Structure (SMILES) | IC50
COc1cc(/C=N/NC(=O)c2cc(O)c(O)c(O)c2)ccc1O | > 100 µM (inactive)
CC(C)c1ccc(NC(=O)C2CCCN(S(=O)(=O)c3ccc4c(c3)oc(=O)n4C)C2)cc1 (stereo not drawn) | > 100 µM (inactive)
O=C(CCS(=O)(=O)Nc1ccc2[nH]c(=O)oc2c1)NCc1ccccc1Cl | > 100 µM (inactive)
O=C(CCNS(=O)(=O)c1ccc2[nH]c(=O)oc2c1)Nc1ccc2c(c1)OCO2 | > 100 µM (inactive)
Cc1ccc(C)c(NC(=O)CNS(=O)(=O)c2ccc3[nH]c(=O)oc3c2)c1 | > 100 µM (inactive)
COc1ccc(NC(=O)CCCNS(=O)(=O)c2ccc3[nH]c(=O)oc3c2)cc1OC | > 100 µM (inactive)
COc1ccc(CNC(=O)CCCNS(=O)(=O)c2ccc3[nH]c(=O)oc3c2)c(OC)c1 | > 100 µM (inactive)
O=C(N/N=C/c1ccccc1F)c1ccc(O)cc1O | > 100 µM (inactive)
O=C(CCNS(=O)(=O)c1ccc2[nH]c(=O)oc2c1)NCc1cccc(Cl)c1 | > 100 µM (inactive)
Cc1ccc(C)c(CNC(=O)C2CCCN(S(=O)(=O)c3ccc4[nH]c(=O)oc4c3)C2)c1 (stereo not drawn) | > 100 µM (inactive)
N#Cc1ccc(NS(=O)(=O)c2ccc3[nH]c(=O)oc3c2)cc1 | > 100 µM (inactive)
CCOc1cc(C(=O)N/N=C/c2ccccc2F)cc(OCC)c1OCC | > 100 µM (inactive)
O=C(CCNS(=O)(=O)c1ccc2[nH]c(=O)oc2c1)NCc1cccc(C(F)(F)F)c1 | > 100 µM (inactive)
Cc1ccccc1CNC(=O)C1CCCN(S(=O)(=O)c2ccc3[nH]c(=O)oc3c2)C1 (stereo not drawn) | > 100 µM (inactive)
CC(C)c1ccc(NC(=O)CCNS(=O)(=O)c2ccc3c(c2)oc(=O)n3C)cc1 | > 100 µM (inactive)
O=C(NCc1ccccc1)C1CCCN(S(=O)(=O)c2ccc3[nH]c(=O)oc3c2)C1 (stereo not drawn) | > 100 µM (inactive)
Cc1cc(NC(=O)CCNS(=O)(=O)c2ccc3[nH]c(=O)oc3c2)ccc1Br | > 100 µM (inactive)
Cc1ccc(NC(=O)CCNS(=O)(=O)c2ccc3c(c2)oc(=O)n3C)c(C)c1 | > 100 µM (inactive)
COc1ccccc1CNC(=O)CCNS(=O)(=O)c1ccc2[nH]c(=O)oc2c1 | > 100 µM (inactive)
COc1cccc(/C=N/NC(=O)c2cc(O)c(O)c(O)c2)c1O | > 100 µM (inactive)
N#Cc1ccc(NC(=O)CNS(=O)(=O)c2ccc3[nH]c(=O)oc3c2)cc1 | > 100 µM (inactive)
Cc1ccc(CNC(=O)C2CCCN(S(=O)(=O)c3ccc4[nH]c(=O)oc4c3)C2)cc1 (stereo not drawn) | > 100 µM (inactive)
O=C(N/N=C/c1ccc(F)cc1F)c1ccc(O)cc1 | > 100 µM (inactive)
COc1ccc(/C=N/NC(=O)c2cc(O)c(O)c(O)c2)cc1OC | > 100 µM (inactive)
O=C(N/N=C/c1ccccc1F)c1ccc(O)cc1 | > 100 µM (inactive)
COc1ccc(NC(=O)CCCNS(=O)(=O)c2ccc3[nH]c(=O)oc3c2)c(OC)c1 | > 100 µM (inactive)
O=C(N/N=C/c1c(F)cccc1F)c1ccc(O)cc1 | > 100 µM (inactive)
O=c1[nH]c2ccc(S(=O)(=O)NCCc3ccc4c(c3)OCO4)cc2o1 | > 100 µM (inactive)
